Measured values published in patent US8362000B2, “Azetidinyl diamides as monoacylglycerol lipase inhibitors” (Janssen Pharmaceutica NV, priority 2009, dated 2013).
Where a chain is given by its changes, count along the chain named.

Each compound was assayed against T1, mutant MGL (Homo sapiens, UniProt Q99685, L169S/L176S) (assay: MGL ThermoFluor assay - mutant). Conditions: ThermoFluor concentration-response, read-out: MGL mutant ThermoFluor Kd.
T1 sequence (Q99685 1-303 L169S/L176S): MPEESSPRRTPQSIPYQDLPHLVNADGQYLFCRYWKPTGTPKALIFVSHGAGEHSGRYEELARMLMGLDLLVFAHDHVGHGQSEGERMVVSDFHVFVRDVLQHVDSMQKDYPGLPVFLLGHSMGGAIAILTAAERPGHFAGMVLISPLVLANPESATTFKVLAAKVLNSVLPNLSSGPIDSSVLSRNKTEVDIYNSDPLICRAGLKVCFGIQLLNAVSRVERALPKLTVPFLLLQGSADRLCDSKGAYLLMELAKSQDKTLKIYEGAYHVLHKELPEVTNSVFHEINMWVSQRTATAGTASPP
Type: binding

In order of falling Kd:
1. O=C(c1ccccc1)N1CCN(C2CN(C(=O)c3cc(-c4ccccc4)oc3C(F)(F)F)C2)CC1 [Cpd 624, 1-(Phenylcarbonyl)-4-(1-{[5-phenyl-2-(trifluoromethyl)furan-3-yl]carbonyl}azetidin-3-yl)piperazine]  880 nM
2. Cc1c(C(=O)N2CCN(C3CN(C(=O)c4cc[nH]c4)C3)CC2)sc2cc(C(F)(F)F)ccc12 [Cpd 748]  40 nM

Same assay, conditions: compound concentration measured by qNMR, read-out: MGL mutant ThermoFluor qKd (using qNMR conc.)

`O=C(c1ccc2c(ccn2CC(F)F)c1)N1CC(N2CCN(C(=O)c3cscn3)CC2)C1` [Cpd 813] was tested, and the Kd was 499 nM.

Each compound was assayed against T2, purified wild type MGL (wt-MGLL 6H-11-313) (Homo sapiens, UniProt Q99685) (assay: not given). Conditions: not given.
T2 sequence (Q99685 1-303): T1 sequence (Q99685 1-303 L169S/L176S) with S169L, S176L

Compared with `Cc1c(-c2ccccc2)oc2c(C(=O)N3CCN(C4CN(C(=O)c5nccs5)C4)CC3c3ccccc3)cccc2c1=O` (centres unmarked) [Cpd 854], `Cc1c(-c2ccccc2)oc2c(C(=O)N3CCN(C4CN(C(=O)c5cscn5)C4)CC3c3ccccc3)cccc2c1=O` (centres unmarked) [Cpd 1436] is higher in IC50: 8410 nM for the first, > 16700 nM for the second.

`Cc1c(C(=O)N2CCN(C3CN(C(=O)c4cc[nH]c4)C3)CC2)sc2cc(C(F)(F)F)ccc12` [Cpd 748] and `O=C(c1ccccc1)N1CCN(C2CN(C(=O)c3cc4cc(C(F)(F)F)ccc4s3)C2)CC1` [Cpd 124] are within 1.5-fold of each other in IC50: 384 nM for the first, 321 nM for the second.

Going from `O=C(c1ccc2c(ccn2CC(F)F)c1)N1CC(N2CCN(C(=O)c3cscn3)CC2)C1` [Cpd 813] to `Cn1c2ccccc2c2cc(C(=O)N3CC(N4CCN(C(=O)c5cscn5)CC4)C3)ccc21` [Cpd 767], the IC50 falls from 2420 nM to 691 nM (3.5-fold).

`O=C(c1ccccc1)N1CC(N2CCN(C(=O)c3ccc(-c4ccccc4)cc3)CC23CC3)C1` [Cpd 606] and `O=C(c1ccccc1)N1CCN(C2CN(C(=O)c3ccc4c(-c5ccccc5)ncnc4c3)C2)CC1` [Cpd 604] are within 1.5-fold of each other in IC50: 2040 nM for the first, 1840 nM for the second.

`Cn1cc(-c2cccc(C(F)(F)F)c2)c2ccc(C(=O)N3CC(N4CCN(C(=O)c5cscn5)CC4)C3)cc21` [Cpd 1084] and `Cn1cc(-c2cccc(C(F)(F)F)c2)c2ccc(C(=O)N3CC(N4CCN(C(=O)c5nccs5)CC4)C3)cc21` [Cpd 1100] are within 1.5-fold of each other in IC50: 9 nM for the first, 12 nM for the second.

Compared with `O=C(c1ccc2nc(CCc3ccccc3)[nH]c2c1)N1CCN(C2CN(C(=O)c3cscn3)C2)CC1` [Cpd 1002], `O=C(c1ccc2[nH]c(Cc3ccccc3)nc2c1)N1CC(N2CCN(C(=O)c3cscn3)CC2)C1` [Cpd 1003] is 3.3-fold lower in IC50: 5290 nM for the first, 1610 nM for the second.

Compared with `O=C(c1nccs1)N1CCN(C2CN(C(=O)c3ccccc3Nc3cccc(F)c3)C2)CC1` [Cpd 754], `O=C(c1nccs1)N1CCN(C2CN(C(=O)c3ccccc3Nc3cccc(C(F)(F)F)c3)C2)CC1` [Cpd 768] is 1.6-fold higher in IC50: 447 nM for the first, 697 nM for the second. The first is the more potent here.

Compared with `O=C(c1ccc2[nH]c3c(c2c1)CCCC3)N1CC(N2CCN(C(=O)c3cscn3)CC2)C1` [Cpd 817], `O=C(c1cscn1)N1CCN(C2CN(C(=O)c3nc4ccc(F)cc4[nH]3)C2)CC1` [Cpd 1442] is higher in IC50: 2700 nM for the first, > 16700 nM for the second.

Compared with `O=C(c1ccc(Oc2cc(C(F)(F)F)ccn2)cc1)N1CC(N2CCN(C(=O)c3nccs3)CC2)C1` [Cpd 652], `O=C(c1cccc(-c2ccc(C(F)(F)F)cc2)c1)N1CC(N2CCN(C(=O)c3nccs3)CC2)C1` [Cpd 149] is 11-fold higher in IC50: 7 nM for the first, 76.9 nM for the second.

Going from `O=C(c1cscn1)N1CCN(C2CN(C(=O)c3nc4cc(Cl)ccc4s3)C2)CC1` [Cpd 855] to `O=C(c1cscn1)N1CC(N2CCN(C(=O)c3nc4cc(Cl)ccc4s3)CC2)C1` [Cpd 821], the IC50 falls from 8440 nM to 2850 nM (3-fold).

`Cc1ccc(-n2nc(C)c(C(=O)N3CC(N4CCN(C(=O)c5nccs5)CC4)C3)n2)cc1` [Cpd 1214] and `Cc1nn(-c2ccc(Cl)cc2)nc1C(=O)N1CC(N2CCN(C(=O)c3nccs3)CC2)C1` [Cpd 1218] are within 1.5-fold of each other in IC50: 209 nM for the first, 222 nM for the second.

First: O=C(c1ccc(Oc2ccccc2Cl)nc1)N1CC(N2CCN(C(=O)c3nccs3)CC2)C1 [Cpd 708]
Second: O=C(c1ccccc1)N1CCN(C2CN(C(=O)c3ccc(Oc4ccccc4Cl)nc3)C2)CC1 [Cpd 521]
The IC50 of the first is 21-fold lower: 106 nM for the first, 2190 nM for the second.

First: O=C(c1nccs1)N1CCN(C2CN(C(=O)c3ccccc3Nc3ccccc3)C2)CC1 [Cpd 781]
Second: Cc1cccc(Nc2ccccc2C(=O)N2CC(N3CCN(C(=O)c4nccs4)CC3)C2)c1C [Cpd 744]
The IC50 of the first is 3.1-fold higher: 1040 nM for the first, 335 nM for the second. The second is the more potent here.

`O=C(c1ccc(CS(=O)(=O)c2cccc(C(F)(F)F)c2)cc1)N1CC(N2CCN(C(=O)C(F)(F)F)CC2)C1` [Cpd 1498] and `O=C(c1ccc(S(=O)(=O)c2cccc(C(F)(F)F)c2)cc1)N1CC(N2CCN(C(=O)C(F)(F)F)CC2)C1` [Cpd 1493] cannot be ordered by IC50: > 16700 nM for the first, > 16700 nM for the second.

First: O=C(c1ccc2[nH]c(Cc3ccccc3)nc2c1)N1CC(N2CCN(C(=O)c3nccs3)CC2)C1 [Cpd 1004]
Second: O=C(c1ccc2nc(Cc3ccccc3)[nH]c2c1)N1CCN(C2CN(C(=O)c3nccs3)C2)CC1 [Cpd 1001]
The IC50 of the first is 8.4-fold lower: 167 nM for the first, 1400 nM for the second.

Compared with `O=C(c1ccc(-c2ccccc2)cc1)N1CC(N2CCN(C(=O)C3CC3)CC2)C1` [Cpd 303], `CC1CN(C2CN(C(=O)c3ccc(-c4ccccc4)cc3)C2)CCN1C(=O)c1nccs1` (centres unmarked) [Cpd 117] is 24-fold higher in IC50: 173 nM for the first, 4230 nM for the second.

Compared with `O=C(c1ccc(S(=O)(=O)c2ccccc2)cc1)N1CC(N2CCN(C(=O)c3cscn3)CC2)C1` [Cpd 822], `O=C(c1ccc2nc(-c3ccccc3)oc2c1)N1CCN(C2CN(C(=O)c3cscn3)C2)CC1` [Cpd 1275] is 1.7-fold lower in IC50: 2860 nM for the first, 1720 nM for the second. The second is the more potent here.

First: O=C(c1nccs1)N1CCN(C2CN(C(=O)c3nc4cc(Cl)ccc4s3)C2)CC1 [Cpd 728]
Second: O=C(c1nccs1)N1CC(N2CCN(C(=O)c3nc4cc(Cl)ccc4s3)CC2)C1 [Cpd 764]
The IC50 of the first is 2.8-fold lower: 231 nM for the first, 636 nM for the second.

Going from `Cc1cc(-c2cccc(C(F)(F)F)c2)ccc1C(=O)N1CCN(C2CN(C(=O)c3cscn3)C2)CC1` [Cpd 1212] to `Cc1c(C(=O)N2CC(N3CCN(C(=O)c4cscn4)CC3)C2)oc2c(F)cccc12` [Cpd 871], the IC50 rises from 204 nM to 13300 nM (65-fold). The first is the more potent here.

`Cn1cc(-c2ccc(F)cc2)c2ccc(C(=O)N3CC(N4CCN(C(=O)c5nccs5)CC4)C3)cc21` [Cpd 1318, 3-(4-Fluorophenyl)-1-methyl-6-({3-[4-(1,3-thiazol-2-ylcarbonyl)piperazin-1-yl]azetidin-1-yl}carbonyl)-1H-indole] and `Cn1cc(Cc2cccc(F)c2)c2ccc(C(=O)N3CC(N4CCN(C(=O)c5nccs5)CC4)C3)cc21` [Cpd 1033, 3-(3-Fluorobenzyl)-1-methyl-6-({3-[4-(1,3-thiazol-2-ylcarbonyl)piperazin-1-yl]azetidin-1-yl}carbonyl)-1H-indole] cannot be ordered by IC50: < 5 nM for the first, < 5 nM for the second.

Going from `O=C(c1ccc2c(c1)CCN(Cc1cccc(C(F)(F)F)c1)C2)N1CC(N2CCN(C(=O)c3nccs3)CC2)C1` [Cpd 879] to `O=C(c1ccc2[nH]c(CCc3ccccc3)nc2c1)N1CC(N2CCN(C(=O)c3nccs3)CC2)C1` [Cpd 1000], the IC50 rises from < 5 nM to 111 nM.

Compared with `Cc1nc2cc(C(=O)N3CC(N4CCN(C(=O)c5cscn5)CC4)C3)ccc2n1C1CCC(F)(F)CC1` [Cpd 1506], `Cc1nc2cc(C(=O)N3CC(N4CCN(C(=O)c5ccccc5)CC4)C3)ccc2n1-c1ccccc1` [Cpd 635] is lower in IC50: > 16700 nM for the first, 838 nM for the second.

`Cc1cn(-c2ccc(F)cc2)c2ccc(C(=O)N3CC(N4CCN(C(=O)c5ccccc5)CC4)C3)cc12` [Cpd 584] and `Cn1cc(-c2ccccc2)c2ccc(C(=O)N3CC(N4CCN(C(=O)c5ccccc5)CC4)C3)cc21` [Cpd 585] are within 1.5-fold of each other in IC50: 105 nM for the first, 107 nM for the second.

`O=C(c1nccs1)N1CCN(C2CN(C(=O)c3cnn(-c4ccccc4)c3-c3ccccc3)C2)CC1` [Cpd 1297] and `Cc1nn(-c2ccc(F)cc2)c(C)c1C(=O)N1CC(N2CCN(C(=O)c3nccs3)CC2)C1` [Cpd 1301] are within 1.5-fold of each other in IC50: 3310 nM for the first, 4610 nM for the second.

Going from `COc1cccc2c(C)c(C(=O)N3CCN(C4CN(C(=O)c5nccs5)C4)CC3)[nH]c12` [Cpd 846] to `Cc1c(-c2ccccc2)oc2c(C(=O)N3CCN(C4CN(C(=O)c5ccccc5)C4)CC3c3ccccc3)cccc2c1=O` (centres unmarked) [Cpd 1489], the IC50 rises from 6450 nM to > 16700 nM. The first is the more potent here.
